Test results from article PMC11578313, “Miniaturized Modular Click Chemistry‐enabled Rapid Discovery of Unique SARS‐CoV‐2 M^pro Inhibitors With Robust Potency and Drug‐like Profile” (Advanced Science, 2024).
“And” between values parts separate entries of the source, which are not always exact repeats. Equal entries are not always repeated.

Assay: In vivo pharmacokinetic study in male ICR mice (compound alone)
Details: for Plasma concentration (Calculated Concentration): mouse plasma
Protocol: The pharmacokinetics profile of the newly developed antiviral compound C5N17B was subsequently evaluated in male ICR mice that were free from specific pathogens, aiming to assess its potential for therapeutic application in vivo.
A total of six male ICR mice were randomly assigned to two groups. One group received the test drug intravenously at a dosage of 2 mg kg^−1, while the other group received oral administration at a dosage of 10 mg kg^−1. To prepare solutions of C5N17B, 2.39 mg compound was dissolved in a mixture of 0.119 mL DMSO, 0.238 mL polyoxyl 15 hydroxystearate (Solutol), and 2.027 mL normal saline. For the intravenous group, blood samples were collected from the sinus jugular into heparinized centrifugation tubes at various time points after dosing: 5, 15, 30 min, 1, 2, 4, 6, 8, and 24 h. As for the oral administration group, blood samples were collected at similar time points (0.05 mL of blood each time). The collected blood samples were then centrifuged at a speed of 4000 rpm for 10 min to separate plasma, which was subsequently stored at −20 °C until further LC‐MS analysis to determine the concentration of C5N17B. Briefly, the analysis involved adding 20 µL of plasma, sample calibration standard, quality control, and dilution quality control, and blank samples into respective wells on a 96‐well plate. Then each sample was quenched with 200 µL of internal standard (the blank sample was quenched with 200 µL of ACN: MeOH = 1:1), followed by vortex‐mixed for 5 min, and centrifuged for 0.5 min at 4000 rpm, 4 °C. Next, a 100 µL portion of supernatant was transferred to another clean 96‐well plate and diluted with 100 µL of water, vortex‐mixed for 5 min and centrifuged for 10 min at 4000 rpm, 4 °C, then the sample was injected for LC‐MS/MS analysis. All samples were quantified using an LC‐MS/MS‐AR Triple Quad 5500+ (SCIEX, USA) and the ExionLC liquid phase system. The mobile phase was 0.1% formic acid‐water/ACN with gradient elute at a flow rate of 0.8 mL mi^−1n (total time 2.20 min), and the detection wavelength was 225 nm. All blood samples were centrifuged using an Eppendorf 5424R centrifuge and quantified using an LC‐MS/MS‐AR Triple Quad 5500+ (SCIEX, USA). The pharmacokinetic parameters were calculated by WinNolin 8.2 software.

[1] = IV 2 mg/kg, individual mice 1#-3#, 2 mg/kg
[2] = IV 2 mg/kg, individual mice 1-3, 2 mg/kg
[3] = PO 10 mg/kg, individual mice 4#-6#, 10 mg/kg
[4] = PO 10 mg/kg, individual mice 4-6, 10 mg/kg

## Cc1cncc(C(=O)N2C[C@H]3CC[C@@H](C2)N3[C@H](c2cccc(F)c2)c2cn(CCc3ccsc3)nn2)c1 [Compound C5N17B]
IV 2 mg/kg, 5 min (5 min), individual mice 1#-3#, 2 mg/kg
  Plasma concentration (Calculated Concentration): 185 ng/mL and 233 ng/mL
IV 2 mg/kg, 0.5 h (30 min), individual mice 1#-3#, 2 mg/kg
  Plasma concentration (Calculated Concentration): 10.2 ng/mL and 16.1 ng/mL
IV 2 mg/kg, 1 h, individual mice
  plasma concentration: BQL
IV 2 mg/kg, 1 h, individual mice 1#-3#, 2 mg/kg
  Plasma concentration (Calculated Concentration): BQL (3×) and No Peak
IV 2 mg/kg, 2 h, individual mice
  plasma concentration: BQL
IV 2 mg/kg, 2 h, individual mice 1#-3#, 2 mg/kg
  Plasma concentration (Calculated Concentration): BQL (3×) and No Peak
IV 2 mg/kg, 4 h, individual mice
  plasma concentration: BQL
IV 2 mg/kg, 4 h, individual mice 1#-3#, 2 mg/kg
  Plasma concentration (Calculated Concentration): BQL (3×) and No Peak
IV 2 mg/kg, 6 h, individual mice
  plasma concentration: BQL
IV 2 mg/kg, 6 h, individual mice 1#-3#, 2 mg/kg
  Plasma concentration (Calculated Concentration): BQL (3×) and No Peak
IV 2 mg/kg, 8 h, individual mice
  plasma concentration: BQL
IV 2 mg/kg, 8 h, individual mice 1#-3#, 2 mg/kg
  Plasma concentration (Calculated Concentration): BQL (3×) and No Peak
IV 2 mg/kg, 24 h, individual mice
  plasma concentration: BQL
IV 2 mg/kg, 24 h, individual mice 1#-3#, 2 mg/kg
  Plasma concentration (Calculated Concentration): BQL (3×) and No Peak
[1]
  AUC0-∞: 51.4 ng·h/mL and 65.2 ng·h/mL
  AUC(0-t): 49.9 ng·h/mL and 62.6 ng·h/mL
  C0: 342 ng/mL and 528 ng/mL
  Cl: 648.77 mL/min/kg and 511.58 mL/min/kg
  Cmax: 185 ng/mL and 233 ng/mL
  MRT0-t: 6.48 min and 5.56 min
  MRT0-∞: 7.38 min and 6.9 min
  T1/2: 6 min and 6.66 min
  Vz: 5.616 L/kg and 4.924 L/kg
IV 2 mg/kg, individual mice 1-3
  Tlast: 0.5 h
[2]
  AUCINF_obs: 51.379 ng·h/mL and 65.1568 ng·h/mL
  AUCINF_pred: 51.3513 ng·h/mL and 64.7977 ng·h/mL
  AUC_%Back_Ext_obs: 49.436% and 42.7448% and 48.6559%
  AUC_%Back_Ext_pred: 49.6744% and 42.7678% and 48.9255%
  AUC_%Extrap_obs: 3.513% and 2.864% and 3.964%
  AUC_%Extrap_pred: 3.048% and 2.812% and 3.432%
  AUCall: 49.9075 ng·h/mL and 62.5739 ng·h/mL
  AUClast: 49.9075 ng·h/mL and 62.5739 ng·h/mL
  AUMCINF_obs: 8.9367 h*h*ng/mL and 6.325 h*h*ng/mL and 7.498 h*h*ng/mL
  AUMCINF_pred: 8.682 h*h*ng/mL and 6.307 h*h*ng/mL and 7.2606 h*h*ng/mL
  AUMC_%Extrap_obs: 20.8781% and 14.9894% and 22.7511%
  AUMC_%Extrap_pred: 18.5552% and 14.7494% and 20.228%
  AUMClast: 7.071 h*h*ng/mL and 5.377 h*h*ng/mL and 5.792 h*h*ng/mL
  C0: 342.295 ng/mL and 528.167 ng/mL
  Cl_obs: 648.773 mL/min/kg and 511.587 mL/min/kg
  Cl_pred: 412.98 mL/min/kg and 649.123 mL/min/kg and 514.422 mL/min/kg
  Clast: 10.2 ng/mL and 16.1 ng/mL
  Clast_pred: 15.8864 ng/mL and 10.0084 ng/mL and 13.8618 ng/mL
  Cmax: 185 ng/mL and 233 ng/mL
  Cmax_D: 146 kg·ng/mL/mg and 92.5 kg·ng/mL/mg and 116.5 kg·ng/mL/mg
  HL_Lambda_z: 0.1073 h and 0.09999 h and 0.1112 h
  Lambda_z: 6.932 h⁻¹ and 6.233 h⁻¹
  MRTINF_obs: 7.386 min and 6.906 min
  MRTINF_pred: 7.368 min and 6.72 min
  MRTlast: 6.462 min and 5.554 min
  Vss_obs: 2.71724 L/kg and 4.7917 L/kg and 3.53216 L/kg
  Vss_pred: 2.66526 L/kg and 4.78335 L/kg and 3.45846 L/kg
  Vz_obs: 3.81856 L/kg and 5.61561 L/kg and 4.92437 L/kg
  Vz_pred: 3.83697 L/kg and 5.61863 L/kg and 4.95166 L/kg
IV 2 mg/kg, mean of mice 1#-3#
  C0, Mean: 514 ng/mL
PO 10 mg/kg (10MPK), 5 min (5 min), individual mice 4#-6#
  Plasma concentration (Calculated Concentration): 23.7 ng/mL and 30.0 ng/mL and 68.2 ng/mL and 30 ng/mL
PO 10 mg/kg (10MPK), 15 min, individual mice 4-6
  Plasma concentration (Calculated Concentration): 15.3 ng/mL and 19.3 ng/mL
PO 10 mg/kg (10MPK), 30 min, individual mice 4-6
  Plasma concentration (Calculated Concentration): 8.4 ng/mL and 4.44 ng/mL and 12 ng/mL
PO 10 mg/kg (10MPK), 1 hr, individual mice 4-6
  Plasma concentration (Calculated Concentration): 6.32 ng/mL and 10.4 ng/mL and 4.89 ng/mL
PO 10 mg/kg (10MPK), 1 hr, samples marked "re", individual mice
  Plasma concentration (Calculated Concentration), re-analysis: 5.19 ng/mL
PO 10 mg/kg (10MPK), 2 hr, individual mice 4-6
  Plasma concentration (Calculated Concentration): 6.1 ng/mL and 8.71 ng/mL and 16.7 ng/mL
PO 10 mg/kg (10MPK), 4 hr, individual mice 4-6
  Plasma concentration (Calculated Concentration): 4.35 ng/mL and 7.74 ng/mL
PO 10 mg/kg (10MPK), 6 hr, individual mice 4-6
  Plasma concentration (Calculated Concentration): No Peak
PO 10 mg/kg (10MPK), 8 hr, individual mice 4-6
  Plasma concentration (Calculated Concentration): No Peak
PO 10 mg/kg (10MPK), 24 hr, individual mice 4-6
  Plasma concentration (Calculated Concentration): No Peak
PO 10 mg/kg (10MPK), individual mice 4#-6#
  T1/2: 208 min and 142 min and 290 min
PO 10 mg/kg, 0.5 h, individual mice 4#-6#, 10 mg/kg
  plasma concentration: 8.4 ng/mL and 12 ng/mL
PO 10 mg/kg, 2 h, individual mice 4#-6#, 10 mg/kg
  plasma concentration: 6.1 ng/mL
PO 10 mg/kg, 6 h, individual mice 4#-6#, 10 mg/kg
  plasma concentration: BQL
PO 10 mg/kg, 8 h, individual mice 4#-6#
  plasma concentration: BQL
PO 10 mg/kg, 24 h, individual mice 4#-6#
  plasma concentration: BQL
[3]
  AUC0-∞: 54.0 ng·h/mL and 102 ng·h/mL
  AUC(0-t): 45.5 ng·h/mL and 47.9 ng·h/mL
  Cmax: 30.0 ng/mL and 68.2 ng/mL and 23.7 ng/mL
  F: 14.30% and 15.08%
  MRT0-t: 114 min and 110 min
  MRT0-∞: 314 min and 185 min and 401 min
PO 10 mg/kg, individual mice 4-6
  Tlag: 0 h
PO 10 mg/kg, individual mice 4-6, full-precision output, 10 mg/kg
  Cmax: 30 ng/mL and 68.2 ng/mL and 23.7 ng/mL
[4]
  AUCINF_obs: 54.0464 ng·h/mL and 102.004 ng·h/mL
  AUCINF_pred: 53.9915 ng·h/mL and 94.7713 ng·h/mL
  AUC_%Extrap_obs: 48.9815% and 15.8821% and 53.0006%
  AUC_%Extrap_pred: 44.7444% and 15.7964% and 49.4138%
  AUCall: 45.4628 ng·h/mL and 47.9412 ng·h/mL
  AUClast: 45.4628 ng·h/mL and 47.9412 ng·h/mL
  AUMCINF_obs: 311.492 h*h*ng/mL and 166.93 h*h*ng/mL and 682.098 h*h*ng/mL
  AUMCINF_pred: 270.44 h*h*ng/mL and 166.412 h*h*ng/mL and 602.65 h*h*ng/mL
  AUMC_%Extrap_obs: 84.1842% and 48.3677% and 87.065%
  AUMC_%Extrap_pred: 81.7834% and 48.2072% and 85.3597%
  AUMClast: 49.2649 h*h*ng/mL and 86.1896 h*h*ng/mL and 88.2296 h*h*ng/mL
  Cl_F_obs: 3083.77 mL/min/kg and 1633.93 mL/min/kg
  Cl_F_pred: 3030.33 mL/min/kg and 3086.92 mL/min/kg and 1758.62 mL/min/kg
  Clast: 5.85 ng/mL and 2.52 ng/mL and 7.74 ng/mL
  Clast_pred: 4.934 ng/mL and 2.504 ng/mL and 6.705 ng/mL
  Cmax_D: 3 kg·ng/mL/mg and 6.82 kg·ng/mL/mg and 2.37 kg·ng/mL/mg
  HL_Lambda_z: 3.457 h and 2.361 h and 4.842 h
  Lambda_z: 0.2005 h⁻¹ and 0.2936 h⁻¹ and 0.1432 h⁻¹
  MRTINF_obs: 313.7 min and 185.3 min and 401.2 min
